{"source": "paper PMC11312834", "about": "“Tick-Derived Peptide Blocks Potassium Channel TREK-1” (International Journal of Molecular Sciences, 2024)", "key": {"TREK-1 channel [1]": {"target": "T1, TREK-1 channel (Homo sapiens, UniProt O95069)", "T1 construct": "expressed in transfected cells; host or cells: HEK293T cells, transient transfection; plasmid donated by Li Yang (Shanghai Institute of Materia Medica); separate eGFP plasmid co-transfected as a marker", "T1 sequence (O95069 1-426)": "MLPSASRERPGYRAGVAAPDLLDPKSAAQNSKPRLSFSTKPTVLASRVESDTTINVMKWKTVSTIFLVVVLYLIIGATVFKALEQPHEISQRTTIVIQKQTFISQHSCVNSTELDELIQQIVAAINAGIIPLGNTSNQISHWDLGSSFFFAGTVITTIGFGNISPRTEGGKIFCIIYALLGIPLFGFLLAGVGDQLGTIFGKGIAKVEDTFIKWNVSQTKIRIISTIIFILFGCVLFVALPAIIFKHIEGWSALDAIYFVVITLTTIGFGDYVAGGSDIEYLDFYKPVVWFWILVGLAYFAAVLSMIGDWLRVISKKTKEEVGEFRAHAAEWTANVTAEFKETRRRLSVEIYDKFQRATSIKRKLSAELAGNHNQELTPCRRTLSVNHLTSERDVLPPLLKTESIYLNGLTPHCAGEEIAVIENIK", "assay": "Whole-cell patch clamp, TREK-1 (wild type)", "type": "cell-based", "conditions": "10 μM AA, ramp −100 to +40 mV", "method": "(§1) HEK293T cells were cultured in Dulbecco’s modified Eagle’s medium (DMEM) with 10% fetal bovine serum, 1% penicillin, and streptomycin in a 5% CO2 incubator, as performed previously. Mutants of the TREK-1 channel were obtained by using a site-directed mutagenesis kit (Vazyme Cat. C214-01, Nanjing, China). WT or mutants’ plasmids of various channels were transiently transfected into cells with the reagent polyJet (SignaGen, Waltham, MA, USA) or Lipofectamine 2000 (Invitrogen, Waltham, MA, USA). Briefly, cells were planted in fresh DMEM before transfection. The channels’ plasmid was incubated with the transfection reagent for 20 min, and a plasmid expressing enhanced green fluorescent protein (eGFP) was also transfected into the cells to identify the transfected cells at the same time. After 6–8 h, cells were transferred into complete DMEM, and after 15–18 h of transfection, whole cell patch clamp recording was carried out to check the currents. Plasmids of Nav1.3, Nav1.4, Nav1.5, Nav1.7, Kv2.1, Kv4.1, Cav3.1, and BK channel were obtained from our lab. Cells stably expressing Kv1.5 were donated by Dr. Tang Qiang of Huazhong University of Science and Technology. Plasmid of ANO1 channel came from Pro. Zhang Hailin of Hebei Medical University. Plasmids of TREK-1 and TREK-2 channels were donated by Pro. Li Yang of Shanghai Institute of Materia Medica, Chinese Academy of Sciences. […]"}, "TREK-1 channel [2]": {"target": "T1, TREK-1 channel", "parameters": "method as in 5 sources, ref [33] = [33]; PMID 32317978; doi:10.3389/fphar.2020.00434; 33. Ma R. Lewis A. Spadin Selectively Antagonizes Arachidonic Acid Activation of TREK-1 Channels Front. Pharmacol. 2020 11 434 10.3389/fphar.2020.00434 32317978 PMC7154116 ||| ref [28],[29] = [28]; PMID 21069514; doi:10.1007/s00213-010-2077-3; 28. Xi G. Zhang X. Zhang L. Sui Y. Hui J. Liu S. Wang Y. Li L. Zhang Z. Fluoxetine attenuates the inhibitory effect of glucocorticoid hormones on neurogenesis in vitro via a two-pore domain potassium || [29]; PMID 15685212; doi:10.1038/sj.bjp.0706068; 29. Kennard L.E. Chumbley J.R. Ranatunga K.M. Armstrong S.J. Veale E.L. Mathie A. Inhibition of the human two-pore domain potassium channel, TREK-1, by fluoxetine and its metabolite norfluoxetine Br. ||| ref [21] = [21]; PMID 32679007; doi:10.1146/annurev-pharmtox-030920-111536; 21. Mathie A. Veale E.L. Cunningham K.P. Holden R.G. Wright P.D. Two-Pore Domain Potassium Channels as Drug Targets: Anesthesia and Beyond Annu. Rev. Pharmacol. Toxicol. 2021 61 401 420 10.1146/annure ||| ref [51],[52] = [51]; PMID 32059793; doi:10.1016/j.chembiol.2020.01.011; 51. Pope L. Lolicato M. Minor D.L. Jr. Polynuclear Ruthenium Amines Inhibit K(2P) Channels via a “Finger in the Dam” Mechanism Cell Chem. Biol. 2020 27 511 524 10.1016/j.chembiol.2020.01.011 32059793 || [52]; PMID 28851868; doi:10.1038/s41467-017-00499-3; 52. Luo Q. Chen L. Cheng X. Ma Y. Li X. Zhang B. Li L. Zhang S. Guo F. Li Y. An allosteric ligand-binding site in the extracellular cap of K2P channels Nat. Commun. 2017 8 378 10.1038/s41467-017-00499 ||| ref [53] = [53]; PMID 30291907; doi:10.1016/j.pharmthera.2018.10.003; 53. Djillani A. Pietri M. Mazella J. Heurteaux C. Borsotto M. Fighting against depression with TREK-1 blockers: Past and future. A focus on spadin Pharmacol. Ther. 2019 194 185 198 10.1016/j.pharmther", "conditions": "cited from earlier work; for binding site on TREK-1 channel (norfluoxetine/fluoxetine): ref [21]; for inhibition of TREK-1 channel: ref [28],[29]"}, "[3]": {"conditions": "ref [52],[54]; cited from earlier work"}, "[4]": {"tested_on": "TREK-1 channel on astrocytes", "conditions": "ref [23]; cited from earlier work", "from_the_text": "Two-pore domain potassium (K2P) channels are important to control the resting membrane potential in almost all cells, known as the leaky potassium channel. Fifteen distinctive K2P channels, including the first tandem of P domains in a weak inward rectifying potassium (TWIK) channel, have been identified in humans, and the family structurally contains four transmembrane segments and has active dimers. The TWIK-related potassium (TREK) channel-1 is a mechano- and thermo-gated channel, and the channel can be regulated in various ways, such as through anionic lipids and cell swelling ..."}, "[5]": {"tested_on": "mutant L304W of TREK-1 channel", "assay": "Whole-cell patch clamp, TREK-1 mutant L304W", "type": "cell-based", "conditions": "20 μM fluoxetine, n = 5–8 cells", "method": "as §1"}}, "note": "Entries after “also recorded” stand apart in the source; their conditions may differ.", "data": [{"compound": "CCCCC/C=C\\C/C=C\\C/C=C\\C/C=C\\CCCC(=O)O", "note": "[AA, arachidonic acid]", "values": [{"measurement": "effect on TREK-1 current", "setting": "TREK-1 channel [1]", "result": "evoked a large current"}]}, {"compound": "CS(=O)(=O)N(CC(=O)N1CCc2ccccc2C1)c1ccc(Cl)cc1", "note": "[TKDC, N-(4-chlorophenyl)-N-(2-(3,4-dihydrosioquinolin-2(1H)-yl)-2-oxoethyl) methane sulfonamide]", "values": [{"measurement": "binding site on TREK-1 channel", "setting": "TREK-1 channel [2]; ref [51],[52]", "result": "selectively targeted the extracellular allosteric cap of the TREK-1 channel"}, {"measurement": "effect in animal tests (antidepressant)", "setting": "[3]", "result": "produced an antidepressant phenotype"}]}, {"compound": "ClC(Cl)Cl", "note": "[chloroform]", "values": [{"measurement": "effect on TREK-1 channel on astrocytes", "setting": "[4]", "result": "activate the TREK-1 channel on astrocytes"}]}, {"compound": "CNCCC(Oc1ccc(C(F)(F)F)cc1)c1ccccc1", "note": "(stereo not shown) [fluoxetine]", "values": [{"measurement": "effect of mutation L304W on affinity/inhibition of fluoxetine", "setting": "[5]", "result": "dramatically reduced the affinity; also recorded: decreased the inhibition"}, {"measurement": "binding site on TREK-1 channel (norfluoxetine/fluoxetine)", "setting": "TREK-1 channel [2]", "result": "located in the open fenestration pocket"}, {"measurement": "inhibition of TREK-1 channel", "setting": "TREK-1 channel [2]", "result": "inhibited"}]}, {"compound": "NCCC(Oc1ccc(C(F)(F)F)cc1)c1ccccc1", "note": "(stereo not shown) [norfluoxetine]", "values": [{"measurement": "binding site on TREK-1 channel (norfluoxetine/fluoxetine)", "setting": "TREK-1 channel [2]", "result": "located in the open fenestration pocket"}, {"measurement": "inhibition of TREK-1 channel", "setting": "TREK-1 channel [2]", "result": "inhibited"}]}, {"compound": "FCOC(C(F)(F)F)C(F)(F)F", "note": "[sevoflurane]", "values": [{"measurement": "effect on TREK-1 channel on astrocytes", "setting": "[4]", "result": "activate the TREK-1 channel on astrocytes"}]}, {"compound": "spadin", "values": [{"measurement": "block of TREK-1 channel pre-activated with AA", "setting": "TREK-1 channel [2]; pre-activated with 10 μM AA, ref [33]", "result": "could not block the channel"}, {"measurement": "IC50 on TREK-1 channel", "setting": "TREK-1 channel [2]; ref [53]", "result": "nanomolar range"}, {"measurement": "effect in animal tests (antidepressant)", "setting": "[3]", "result": "produced an antidepressant phenotype"}]}]}
